The target of one test is T1, human mTOR (Homo sapiens, UniProt P42345).
T1 construct: the portion corresponding to 1362-2549aa at the C terminus of human mTOR; made in house
Kind of test: mTOR Kinase Activity Inhibition Test. The class given is biochemical. The note with it: His-tagged mTOR (1362C), biotinylated peptide substrate, ATP, 3 hours at room temperature, fluorescence resonance energy transfer 665 nm/620 nm; read-out: IC50 value of mTOR enzyme inhibitory activity. Summed up:
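Purified His-tagged human mTOR (1362–2549aa, from HEK293) was used with biotinylated peptide (8 μg/mL in enzyme solution) in HEPES pH 7.5 with 20 mM MnCl2. Compounds were diluted in 20 μM ATP solution, and the reaction ran 3 h at RT. Phospho-S6K(Thr389) HTRF was read as the 665/620 nm ratio, and IC50 came from % inhibition versus controls.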

The subject of a further test is WM-266-4 cells. Kind of test: Cell Proliferation Inhibitory Test. The test is classed as cell-based. Conditions: Homo sapiens, 72 h, cultured three days with test compound, MTT, read-out: 50% cell proliferation inhibitory activity (GI50 value). In a few lines:
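Cells cultured overnight, then exposed to serially diluted compound for three days; cell amount read by MTT. GI50 solved from 100×[(T−T0)/(C−T0)]=50, with T0 the value at time of compound addition and C the untreated three-day control.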

Among the data in patent publication US8436012B2, “Imidazopyridin-2-one derivatives” (Daiichi Sankyo Company, Limited, priority 2008, dated 2013) are IC50 and GI50 values, retold here.

pIC50: −log10 of the molar value. Some results are limits rather than exact numbers.

T1 sequence (P42345 1362-2549): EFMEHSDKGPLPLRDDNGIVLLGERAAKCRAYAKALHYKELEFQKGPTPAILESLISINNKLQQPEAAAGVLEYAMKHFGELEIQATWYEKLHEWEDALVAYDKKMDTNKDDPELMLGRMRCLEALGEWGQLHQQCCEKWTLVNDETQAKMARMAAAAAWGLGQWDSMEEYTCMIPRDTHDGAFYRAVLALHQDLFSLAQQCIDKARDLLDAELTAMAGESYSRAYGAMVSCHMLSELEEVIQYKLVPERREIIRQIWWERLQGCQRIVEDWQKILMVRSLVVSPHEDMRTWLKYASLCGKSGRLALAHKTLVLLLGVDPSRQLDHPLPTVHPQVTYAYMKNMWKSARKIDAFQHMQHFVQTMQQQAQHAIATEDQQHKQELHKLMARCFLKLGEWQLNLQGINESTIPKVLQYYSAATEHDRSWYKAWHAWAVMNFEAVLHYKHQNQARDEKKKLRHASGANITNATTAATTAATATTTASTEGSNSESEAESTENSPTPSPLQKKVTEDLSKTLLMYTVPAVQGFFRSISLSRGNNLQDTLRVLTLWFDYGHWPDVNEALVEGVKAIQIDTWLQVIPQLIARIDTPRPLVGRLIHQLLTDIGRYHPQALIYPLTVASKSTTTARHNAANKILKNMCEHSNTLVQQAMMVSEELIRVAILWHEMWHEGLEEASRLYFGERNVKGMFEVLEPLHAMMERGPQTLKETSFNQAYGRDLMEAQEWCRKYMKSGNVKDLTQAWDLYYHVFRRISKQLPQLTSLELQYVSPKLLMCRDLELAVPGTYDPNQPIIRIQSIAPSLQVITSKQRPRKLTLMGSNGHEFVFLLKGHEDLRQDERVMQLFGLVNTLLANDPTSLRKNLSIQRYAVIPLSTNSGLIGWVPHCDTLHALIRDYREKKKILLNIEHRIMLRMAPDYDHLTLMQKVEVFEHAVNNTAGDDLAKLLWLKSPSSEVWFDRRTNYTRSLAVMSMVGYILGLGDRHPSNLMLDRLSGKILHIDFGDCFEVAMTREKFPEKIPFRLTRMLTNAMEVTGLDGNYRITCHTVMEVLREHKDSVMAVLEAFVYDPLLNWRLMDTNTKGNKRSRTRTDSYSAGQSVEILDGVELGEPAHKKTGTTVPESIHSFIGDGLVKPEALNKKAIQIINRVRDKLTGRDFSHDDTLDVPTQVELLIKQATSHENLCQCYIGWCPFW

For orientation: pIC50 means the IC50 on a negative log10 scale, so that one unit is a factor of ten. As for `O=c1[nH]c2ncc(-c3cnc4[nH]ccc4c3)cc2n1C[C@H]1CC[C@@H](O)CO1` (racemic) [Example 112, 2,6-Anhydro-1,3,4-trideoxy-1-[2-oxo-6-(1H-pyrrolo[2,3-b]pyridin-5-yl)-2,3-dihydro-1H-imidazo[4,5-b]pyridin-1-yl]-DL-threo-hexitol], at human mTOR, the pIC50 was above 7.30. In addition, the GI50 in the test with WM-266-4 cells is below 3000 nM.
For `O=c1[nH]c2ncc(-c3cnc4[nH]ccc4c3)cc2n1C[C@H]1CC[C@@H](O)CC1` [Example 102, 1-[(cis-4-Hydroxycyclohexyl)methyl]-6-(1H-pyrrolo[2,3-b]pyridin-5-yl)-1,3-dihydro-2H-imidazo[4,5-b]pyridin-2-one], in that order: above 7.30 and below 3000 nM.
For `O=c1[nH]c2ncc(-c3cnc4[nH]ccc4c3)cc2n1CC1CCOCC1` [Example 15, 6-(1H-Pyrrolo[2,3-b]pyridin-5-yl)-1-(tetrahydro-2H-pyran-4-ylmethyl)-1,3-dihydro-2H-imidazo[4,5-b]pyridin-2-one], in that order: above 7.30 and below 3000 nM.
The like results for `O=c1[nH]c2ncc(-c3cnc4[nH]ccc4c3)cc2n1C1CCOCC1` [Example 19, 6-(1H-Pyrrolo[2,3-b]pyridin-5-yl)-1-(tetrahydro-2H-pyran-4-yl)-1,3-dihydro-2H-imidazo[4,5-b]pyridin-2-one] were, in that order, above 7.30 and below 3000 nM.
In the case of `CS(=O)(=O)N1CCN(CCn2c(=O)[nH]c3ncc(-c4cnc5[nH]ccc5c4)cc32)CC1` [Example 60, 1-{2-[4-(Methylsulfonyl)piperazin-1-yl]ethyl}-6-(1H-pyrrolo[2,3-b]pyridin-5-yl)-1,3-dihydro-2H-imidazo[4,5-b]pyridin-2-one], the negative-log IC50 (pIC50) at human mTOR was above 7.30. Besides, the GI50 with WM-266-4 cells was below 3000 nM.
For `CO[C@H]1CCO[C@@H](Cn2c(=O)[nH]c3ncc(-c4cnc5[nH]ccc5c4C)cc32)C1` [Example 139, 2,6-Anhydro-1,3,5-trideoxy-4-O-methyl-1-[6-(4-methyl-1H-pyrrolo[2,3-b]pyridin-5-yl)-2-oxo-2,3-dihydro-1H-imidazo[4,5-b]pyridin-1-yl]-L-threo-hexitol], in that order: above 7.30 and below 3000 nM.
For `O=c1[nH]c2ncc(-c3cnc4[nH]ccc4c3)cc2n1C[C@@H]1COC[C@H]1O` (racemic) [Example 61], in that order: above 7.30 and below 3000 nM.
For the molecule `O=c1[nH]c2ncc(-c3cnc4[nH]cc(F)c4c3)cc2n1C[C@H]1COCCO1` [Example 118, 1-[(2S)-1,4-Dioxan-2-ylmethyl]-6-(3-fluoro-1H-pyrrolo[2,3-b]pyridin-5-yl)-1,3-dihydro-2H-imidazo[4,5-b]pyridin-2-one], the negative logarithm of the IC50 (pIC50) at human mTOR is above 7.30. In the test on WM-266-4 cells, the GI50 is below 3000 nM.
For `O=c1[nH]c2ncc(-c3ccc4[nH]ncc4c3)cc2n1CC1CCOCC1` [Example 14, 6-(1H-Indazol-5-yl)-1-(tetrahydro-2H-pyran-4-ylmethyl)-1,3-dihydro-2H-imidazo[4,5-b]pyridin-2-one], in that order: 5.30 to 7.00 and 3000 to 25000 nM.
For `CC(=O)c1c[nH]c2ncc(-c3cnc4[nH]c(=O)n(CC5CCOCC5)c4c3)cc12` [Example 85, 6-(3-Acetyl-1H-pyrrolo[2,3-b]pyridin-5-yl)-1-(tetrahydro-2H-pyran-4-ylmethyl)-1,3-dihydro-2H-imidazo[4,5-b]pyridin-2-one], in that order: 5.30 to 7.00 and 3000 to 25000 nM.
For `O=c1[nH]c2ncc(-c3cnc4[nH]ccc4c3)cc2n1C[C@@H]1COCCO1` [Example 39, 1-[(2R)-1,4-Dioxan-2-ylmethyl]-6-(1H-pyrrolo[2,3-b]pyridin-5-yl)-1,3-dihydro-2H-imidazo[4,5-b]pyridin-2-one], in that order: above 7.30 and below 3000 nM.
On to `COCC1COC[C@H](Cn2c(=O)[nH]c3ncc(-c4cnc5[nH]ccc5c4C)cc32)O1` (stereo partly drawn) [Example 153, 1-{[(2S)-6-(Methoxymethyl)-1,4-dioxan-2-yl]methyl}-6-(4-methyl-1H-pyrrolo[2,3-b]pyridin-5-yl)-1,3-dihydro-2H-imidazo[4,5-b]pyridin-2-one], for which the pIC50 on human mTOR is above 7.30. Further, in the test with WM-266-4 cells, the GI50 was below 3000 nM.
For the molecule `CO[C@@H]1COC[C@H]1Cn1c(=O)[nH]c2ncc(-c3cnc4[nH]ccc4c3)cc21` (racemic) [Example 64, 1-{[trans-4-Methoxytetrahydrofuran-3-yl]methyl}-6-(1H-pyrrolo[2,3-b]pyridin-5-yl)-1,3-dihydro-2H-imidazo[4,5-b]pyridin-2-one], the negative logarithm of the IC50 (pIC50) on human mTOR is above 7.30. Besides, the GI50 with WM-266-4 cells was below 3000 nM.
For `Cc1c(-c2cnc3[nH]c(=O)n(C[C@H]4CC[C@@H](O)CO4)c3c2)cnc2[nH]ccc12` [Example 143, 2,6-Anhydro-1,3,4-trideoxy-1-[6-(4-methyl-1H-pyrrolo[2,3-b]pyridin-5-yl)-2-oxo-2,3-dihydro-1H-imidazo[4,5-b]pyridin-1-yl]-L-threo-hexitol], in that order: above 7.30 and below 3000 nM.
For `CC(Cn1c(=O)[nH]c2ncc(-c3cnc4[nH]ccc4c3)cc21)C1CCOCC1` (stereo not shown) [Example 50, 6-(1H-Pyrrolo[2,3-b]pyridin-5-yl)-1-[2-(tetrahydro-2H-pyran-4-yl)propyl]-1,3-dihydro-2H-imidazo[4,5-b]pyridin-2-one], in that order: above 7.30 and below 3000 nM.
Take `O=c1[nH]c2ncc(-c3ccc4[nH]ccc4c3)cc2n1CCC1CCOCC1` [Example 3, 6-(1H-Indol-5-yl)-1-[2-(tetrahydro-2H-pyran-4-yl)ethyl]-1,3-dihydro-2H-imidazo[4,5-b]pyridin-2-one]: on human mTOR, the negative-log IC50 (pIC50) is above 7.30. The GI50 in the test with WM-266-4 cells was below 3000 nM.
For `CCOC(=O)c1c[nH]c2ncc(-c3cnc4[nH]c(=O)n(CC5CCOCC5)c4c3)cc12` [Example 92, Ethyl 5-[2-oxo-1-(tetrahydro-2H-pyran-4-ylmethyl)-2,3-dihydro-1H-imidazo[4,5-b]pyridin-6-yl]-1H-pyrrolo[2,3-b]pyridine-3-carboxylate], in that order: above 7.30 and below 3000 nM.
On to `CO[C@H]1CC[C@H](Cn2c(=O)[nH]c3ncc(-c4cnc5[nH]ccc5c4)cc32)CC1` [Example 98, 1-[(trans-4-Methoxycyclohexyl)methyl]-6-(1H-pyrrolo[2,3-b]pyridin-5-yl)-1,3-dihydro-2H-imidazo[4,5-b]pyridin-2-one], for which the pIC50 at human mTOR was above 7.30. The GI50 with WM-266-4 cells is below 3000 nM.
The like results for `O=c1[nH]c2ncc(-c3ccc4[nH]ccc4c3F)cc2n1CC1CCOCC1` [Example 27, 6-(4-Fluoro-1H-indol-5-yl)-1-(tetrahydro-2H-pyran-4-ylmethyl)-1,3-dihydro-2H-imidazo[4,5-b]pyridin-2-one] were, in that order, above 7.30 and below 3000 nM.
The like results for `O=c1[nH]c2ncc(-c3cnc4[nH]ccc4c3)cc2n1CC1CCCOC1` (stereo not shown) [Example 32, 6-(1H-Pyrrolo[2,3-b]pyridin-5-yl)-1-(tetrahydro-2H-pyran-3-ylmethyl)-1,3-dihydro-2H-imidazo[4,5-b]pyridin-2-one] were, in that order, above 7.30 and below 3000 nM.
